# Results taken from EP0578726B1, “VIRUS INACTIVATION METHOD” (VEGATEC, priority 1991, dated 1992).
# Experiments:
# [1] = test system: Herpès Simplex Virus II (HSV II); assay: Example II: kinetics of HSV II inactivation, titration on receptor cells; type: cell-based; details: after 15 minutes of contact, (III) 5 g/l final concentration
# Procedure: Herpès Simplex Virus II (HSV II) de l'exemple 1 est incubé avec une solution de (III) à 5 g/l en concentration finale dans son milieu de culture.
# Des prélèvements sont effectués à intervalles de temps 5, 10, 15, 30 et 60 minutes, puis titrés pour leur contenu en virus infectieux sur cellules réceptrices en culture.
# C 1 estérase = assay: Example VIII: inhibitory capacity of treated C 1 Inactivateur towards C 1 estérase; type: biochemical; details: 6 h - 24°C, (III) at 6,5 g/l, % of inhibitory activity of purified C 1 Inactivateur without additive at To
# Procedure: La protéine a donc été traitée d'une part avec le procédé solvant-détergent, d'autre part avec (III) à une concentration finale de 6,5 g/l pendant 6 h à 24°C, dans le but d'obtenir l'inactivation des virus éventuellement présents dans la matière première.
# Le tableau H montre l'influence du traitment d'inactivation virale sur les propriétés inhibitrices du C 1 Ina essayé sur trois enzymes : C 1 estérase, kallicréine, plasmine.
# Le témoin est incubé 6 h à 24°C mais ne contient aucun additif inactivant.
# L'activité inhibitrice est exprimée en % de l'activité inhibitrice du C 1 Inactivateur purifié sans additif et dosé à To.
# [2] = test system: Herpès simplex virus II (HSVII); assay: Example I: inactivation of HSVII suspensions, detection in cell culture; type: cell-based; details: 6,5 g/l of (III)
# Procedure: Herpès simplex virus II (HSVII) est entretenu en culture cellulaire et les suspensions virales obtenues ont une dose infectieuse 50% (DI50) à une dilution de 10⁻⁶.
# Les suspensions virales sont mises en contact avec 6,5g/l de (III) pendant 1h, 2h, 4h à 30°C.
# Des témoins positifs sont réalisés dans les mêmes conditions d'incubation sans addition de (III).
# L'effet virucide de (III) est arrêté par dilution au 1/100e avec du milieu de culture sans virus. La concentration virale atteint alors 10⁴DI50 pour l'effet de dilution.
smiles,measurement,setting,value
"CCCCCCCNC(=O)OC[C@H]1O[C@H](OC)[C@H](O)[C@@H](O)[C@@H]1O [(III), 6-O-(N-heptylcarbamoyl)méthyl-α-D-glucopyranoside]",activité virale de HSVII,[1],Aucune activité virale de HSVII n'est détectée
same,Activité anti C 1 estérase,C 1 estérase; essai n° 1,"96,2%"
same,Activité anti C 1 estérase,C 1 estérase; essai n° 2,100%
same,inactivation de HSVII,"[2]; 30°C, control titre 10⁴DI50",≥ 4 log
same,activité virale de HSVII,"[2]; contact 1h, 2h, 4h at 30°C, stopped by 1/100 dilution",Aucune activité virale de HSVII n'est détectée
